pIC50: −log10 of the molar value. Where “and” joins values, the source holds several entries; their conditions need not be identical. Equal entries are not always repeated.
Tested on: 885512-296-R-J2-PDC complex spheroid viability
Experiment: Anticancer human tumor 885512-296-R-J2-PDC patient-derived breast carcinoma cell line growth inhibition [GQUAD]
Conditions: for viability, T/C: stronger effect = lower value
Description: DNA G-quadruplex Stabilizer Agents in Combinations in Complex Spheroids
A high-throughput screen of multi-cell type tumor spheroids was designed to identify active combinations of DNA G-quadruplex stabilizer agents and targeted small molecules. Complex spheroids include a stromal component modeled by human endothelial cells (HUVEC) and fibroblasts modeled by human mesenchymal stem cells (MSCs). The concentration ranges selected for each drug and investigational agent were based upon clinically achievable concentrations if the clinical Cmax of the agent was known.
Compounds. The drugs and investigational agents: pidnarulex (CX-5461; NSC782164), APTO-253 (NSC789042), BRACO-19 (NSC847499), peposertib (NSC802822), ceralasertib (NSC780249), elimusertib (NSC800525), camonsertib (NSC841442), AZD-1390 (NSC803789), olaparib (NSC753686), talazoparib (NSC767125), ART-558 (NSC835418), sotorasib (NSC818433), MRTX-1133 (NSC836407), SN-38 (NSC673596), topotecan (NSC609699), etoposide (NSC141540), doxorubicin (NSC123127), gemcitabine (NSC613327), 5-fluorouracil (NSC19893), paclitaxel (NSC125973), vemurafenib (NSC761431), panobinostat (NSC761190), R-306465 (JNJ-16241199; NSC773264), adavosertib (NSC754352), TP-3654 (NSC805149), carboplatin (NSC241240), KSQ-4279 (NSC840948), and staurosporine (NSC755774) were obtained from the National Cancer Institute (NCI) Developmental Therapeutics Program Chemical Repository (34). The FDA-approved anticancer drug set is available from the NCI Developmental Therapeutics Program. […] The stock solutions were prepared in dimethyl sulfoxide (DMSO, Sigma-Aldrich, St. Louis, MO, cat. D2650) at 800-fold the tested concentration and stored at -70 degrees C prior to their use. All drugs and investigational agents were tested over a range starting from a high concentration at or near the clinical Cmax and decreasing in half-log increments. If the clinical Cmax for an agent had not been determined, the highest concentration tested was 10 microM.
2.3 Cell Culture. All cells were maintained in an incubator at 37 degrees C and 5% CO2 with 95% humidity. The PDC lines were cultured according to standard operating procedures established by the NCI PDMR. All PDCs were thawed and cultured in Matrigel-coated flasks prepared with a working solution of 1X Ham's F-12 nutrient mix, without supplementation (Invitrogen, cat. 11765054), 100 U/mL penicillin-streptomycin (Invitrogen, cat. 15140122), and 2.5% Matrigel (Corning Inc., cat. 354248) for the first three passages. The 857933-349-R-J2-PDC line was cultured in 6C/Colon 1B media, which includes advanced DMEM/F-12 (Thermo Fisher Scientific, cat. 12634028), 10 mM HEPES (Thermo Fisher Scientific, cat. 15630080), 1X GlutaMAX supplement (Thermo Fisher Scientific, cat. 35050061), 0.1 mg/mL primocin (InvivoGen, cat. ant-pm-2), 10% defined fetal bovine serum, heat inactivated (HyClone Laboratories Inc., cat. SH30070.03HI), 50% L-WRN conditioned media (ATCC, cat. CRL-3276), 1.25 mM N-Acetyl-L-cysteine (Sigma-Aldrich, cat. A9165), 10 mM nicotinamide (Sigma-Aldrich, cat. N0636), 1X B-27 supplement (Thermo Fisher Scientific, cat. 17504044), 1X N-2 supplement (Thermo Fisher Scientific, cat. 17502048), 10 microM Y-27632 dihydrochloride (Tocris Bioscience, cat. 1254), and 50 ng/mL human EGF recombinant protein (Thermo Fisher Scientific, cat. PHG0311). The 485176-168-R4-J1-PDC line was cultured in Panc media, which includes all 6C/Colon 1B media components plus 100 ng/mL human FGF-10 (Thermo Fisher Scientific, cat. 100-26), 500 nM SB-431542 (Selleckchem, cat. S1067), and gastrin (Tocris, cat. 3006).
[…]

[1] = curve of first compound, second compound 0.0316 µM
[2] = curve of first compound, second compound 0.1 µM
[3] = curve of first compound, second compound 0.316 µM
[4] = curve of first compound, second compound 1 µM
[5] = curve of first compound, second compound 3.16 µM
[6] = curve of first compound, second compound 10 µM
[7] = second compound 0.0316 µM, first compound 0.0316 µM
[8] = second compound 0.0316 µM, first compound 0.1 µM
[9] = second compound 0.0316 µM, first compound 0.316 µM
[10] = second compound 0.0316 µM, first compound 1 µM
[11] = second compound 0.0316 µM, first compound 3.16 µM
[12] = second compound 0.0316 µM, first compound 10 µM
[13] = second compound 0.1 µM, first compound 0.0316 µM
[14] = second compound 0.1 µM, first compound 0.1 µM
[15] = second compound 0.1 µM, first compound 0.316 µM
[16] = second compound 0.1 µM, first compound 1 µM
[17] = second compound 0.1 µM, first compound 3.16 µM
[18] = second compound 0.1 µM, first compound 10 µM
[19] = second compound 0.316 µM, first compound 0.0316 µM
[20] = second compound 0.316 µM, first compound 0.1 µM
[21] = second compound 0.316 µM, first compound 0.316 µM
[22] = second compound 0.316 µM, first compound 1 µM
[23] = second compound 0.316 µM, first compound 3.16 µM
[24] = second compound 0.316 µM, first compound 10 µM
[25] = second compound 1 µM, first compound 0.0316 µM
[26] = second compound 1 µM, first compound 0.1 µM
[27] = second compound 1 µM, first compound 0.316 µM
[28] = second compound 1 µM, first compound 1 µM
[29] = second compound 1 µM, first compound 3.16 µM
[30] = second compound 1 µM, first compound 10 µM
[31] = second compound 3.16 µM, first compound 0.0316 µM
[32] = second compound 3.16 µM, first compound 0.1 µM
[33] = second compound 3.16 µM, first compound 0.316 µM
[34] = second compound 3.16 µM, first compound 1 µM
[35] = second compound 3.16 µM, first compound 3.16 µM
[36] = second compound 3.16 µM, first compound 10 µM
[37] = second compound 10 µM, first compound 0.0316 µM
[38] = second compound 10 µM, first compound 0.1 µM
[39] = second compound 10 µM, first compound 0.316 µM
[40] = second compound 10 µM, first compound 1 µM
[41] = second compound 10 µM, first compound 3.16 µM
[42] = second compound 10 µM, first compound 10 µM
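Further: spheroids exposed to the compounds for one week.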
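Wherever viability, T/C is given: percent of tumor spheroid viability relative to DMSO vehicle control wells.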

In the case of `C=CCn1c(=O)c2cnc(Nc3ccc(N4CCN(C)CC4)cc3)nc2n1-c1cccc(C(C)(C)O)n1`, the viability, T/C (compound 0.0316 µM) was 94.9% and 110% and 103%, the viability, T/C (compound 0.1 µM) was 92.2% and 91.9% and 92.6% and the viability, T/C (compound 0.316 µM) was 99.1% and 52.3% and 57.8%. For the same molecule, the viability, T/C (compound 1 µM) was 125% and 7.26% and 11%.

With `O=c1[nH]cc(F)c(=O)[nH]1` the viability, T/C (compound 0.0316 µM) was 94.2% and 107% and 96.5%, the viability, T/C (compound 0.1 µM) was 102% and 97.5% and 105% and the viability, T/C (compound 0.316 µM) was 113% and 107% and 99.3%. For the same molecule, the viability, T/C (compound 1 µM) was 123% and 89.3% and 95.8%, the viability, T/C (compound 3.16 µM) was 71.7% and 58.4% and 66% and the viability, T/C (compound 10 µM) was 52.8% and 55% and 55.4%. It also gave a pIC50 (curve of compound) of under 5.00.

With `CC1COCCN1c1cc(-c2ccnn2C)c2ccnc(-c3ccn[nH]3)c2n1` (stereo not given) + CN(C)c1ccc(Nc2c3ccc(NC(=O)CCN4CCCC4)cc3nc3cc(NC(=O)CCN4CCCC4)ccc23)cc1 the pIC50 [1] was 7.43, the pIC50 [2] was 7.49 and the pIC50 [3] was over 7.50. The pIC50 [4] was over 7.50, the pIC50 [5] was over 7.50 and the pIC50 [6] was over 7.50. The viability, T/C [7] was 57.1%, the viability, T/C [8] was 6.61% and the viability, T/C [9] was 3.14%. For the same molecule, the viability, T/C [10] was 3%, the viability, T/C [11] was 4.69% and the viability, T/C [12] was 8.34%. The viability, T/C [13] was 50.8%, the viability, T/C [14] was 7.66% and the viability, T/C [15] was 2.82%. For the same molecule, the viability, T/C [16] was 3.38%, the viability, T/C [17] was 5.04% and the viability, T/C [18] was 7.27%. For the same molecule, the viability, T/C [19] was 46.7%, the viability, T/C [20] was 6.13% and the viability, T/C [21] was 3.67%. For the same molecule, the viability, T/C [22] was 3.77%, the viability, T/C [23] was 5.39% and the viability, T/C [24] was 7.84%. The viability, T/C [25] was 44%, the viability, T/C [26] was 7.67% and the viability, T/C [27] was 3.43%. For the same molecule, the viability, T/C [28] was 3.61%, the viability, T/C [29] was 4.71% and the viability, T/C [30] was 8.81%. For the same molecule, the viability, T/C [31] was 27.2%, the viability, T/C [32] was 6.07% and the viability, T/C [33] was 3.25%. The viability, T/C [34] was 3.51%, the viability, T/C [35] was 5.21% and the viability, T/C [36] was 7.01%. The viability, T/C [37] was 12.7%, the viability, T/C [38] was 7.23% and the viability, T/C [39] was 4.41%. For the same molecule, the viability, T/C [40] was 3.59%, the viability, T/C [41] was 4.61% and the viability, T/C [42] was 2.61%.

`CC1COCCN1c1cc(-c2ccnn2C)c2ccnc(-c3ccn[nH]3)c2n1` (stereo not given) + Cc1cnc(CNC(=O)c2c(=O)c3ccc(N4CCCN(C)CC4)nc3n3c2sc2ccccc23)cn1 showed a pIC50 [1] of over 7.50, a pIC50 [2] of over 7.50 and a pIC50 [3] of over 7.50. For the same molecule, the pIC50 [4] was over 7.50, the pIC50 [5] was over 7.50 and the pIC50 [6] was over 7.50. For the same molecule, the viability, T/C [7] was 7.27%, the viability, T/C [8] was 3% and the viability, T/C [9] was 3.14%. It also gave a viability, T/C [10] of 2.98%, a viability, T/C [11] of 4.32% and a viability, T/C [12] of 6.71%. It also gave a viability, T/C [13] of 7.98%, a viability, T/C [14] of 3.24% and a viability, T/C [15] of 2.68%. The viability, T/C [16] was 3.6%, the viability, T/C [17] was 4.73% and the viability, T/C [18] was 6.8%. It also gave a viability, T/C [19] of 6.5%, a viability, T/C [20] of 4.72% and a viability, T/C [21] of 4.23%. It also gave a viability, T/C [22] of 4.64%, a viability, T/C [23] of 5.38% and a viability, T/C [24] of 6.91%. It also gave a viability, T/C [25] of 7.32%, a viability, T/C [26] of 5.67% and a viability, T/C [27] of 4.04%. It also gave a viability, T/C [28] of 5.5%, a viability, T/C [29] of 6.49% and a viability, T/C [30] of 7.5%. For the same molecule, the viability, T/C [31] was 0.41%, the viability, T/C [32] was 0.9% and the viability, T/C [33] was 0.43%. For the same molecule, the viability, T/C [34] was 5.3%, the viability, T/C [35] was 6.82% and the viability, T/C [36] was 6.13%. For the same molecule, the viability, T/C [37] was 0.03%, the viability, T/C [38] was 0.1% and the viability, T/C [39] was 0.12%. For the same molecule, the viability, T/C [40] was 0.06%, the viability, T/C [41] was 0.1% and the viability, T/C [42] was 0.11%.
